Patent publication US5210193A, “Piperazine derivatives” (American Cyanamid Company, priority 1990, dated 1993)
In brackets after ≈: the same amount, converted by molar mass. Several values for one entry are separate records, joined by “and”; a condition that tells them apart may be missing. Equal entries are not always repeated. Where two headings read alike, the source gives them in different places. Values belong to the molecule of their own block, whether it stands above or below them.

Assays:
Assay in all cases: in vitro antibacterial MIC, agar plate dilution
Format in all cases: cell-based
[1] = test system: Staphylococcus aureus K 82-26; details: 35° C.
How it was run: (§1)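 Agar plate dilution on Mueller-Hinton agar, inoculum about 10^4 CFU per spot applied with a Steers replicator. MIC (mcg/ml) is the lowest compound concentration preventing visible growth after 18 h at 35 °C.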

[2] = test system: Proteus rettgeri IO 83-21; details: 35° C.
How it was run: as §1

[3] = test system: Streptococcus faecalis VGH 84-65; details: 35° C.
How it was run: as §1

[4] = test system: Morganella morganii CMC 84-37; details: 35° C.
How it was run: as §1

[5] = test system: Enterobacter cloacae VGH 84-39; details: 35° C.
How it was run: as §1

[6] = test system: Staphylococcus aureus CMC 83-131; details: 35° C.
How it was run: as §1

[7] = test system: Staphylococcus aureus VGH 84-47; details: 35° C.
How it was run: as §1

[8] = test system: Serratia marcescens K 84-18; details: 35° C.
How it was run: as §1

[9] = test system: Pseudomonas aeruginosa VGH 84-4; details: 35° C.
How it was run: as §1

[10] = test system: Providencia stuarti CMC 83-3; details: 35° C.
How it was run: as §1

[11] = test system: Escherichia coli LL 311; details: Escherichia coli, LL311, 18 h, 35° C., read-out: MIC
How it was run: as §1

[12] = test system: Serratia marcescens MOR 84-41; details: 35° C.
How it was run: as §1

[13] = test system: Streptococcus faecalis UCI 85-19; details: 35° C.
How it was run: as §1

[14] = test system: Escherichia coli VGH 84-19; details: 35° C.
How it was run: as §1

[15] = test system: Enterobacter cloacae K 84-10; details: 35° C.
How it was run: as §1

[16] = test system: Serratia marcescens VGH 84-30; details: Serratia marcescens, VGH8430, 18 h, 35° C., read-out: MIC
How it was run: as §1

[17] = test system: Pseudomonas aeruginosa CMC 83-20; details: 35° C.
How it was run: as §1

[18] = test system: Staphylococcus aureus Smith; details: 35° C.
How it was run: as §1

[19] = test system: Streptococcus faecalis VGH 84-69; details: 35° C.
How it was run: as §1

[20] = test system: Proteus rettgeri CMC 84-41; details: Providencia rettgeri, CMC8441, 18 h, 35° C., read-out: MIC
How it was run: as §1

[21] = test system: Streptococcus faecalis CMC 83-120; details: 35° C.
How it was run: as §1

[22] = test system: Serratia marcescens CMC 83-74; details: 35° C.
How it was run: as §1

[23] = test system: Klebsiella pneumoniae CMC 84-31; details: 35° C.
How it was run: as §1

[24] = test system: Streptococcus faecalis UCI 85-30; details: 35° C.
How it was run: as §1

[25] = test system: Klebsiella pneumoniae IO 83-5; details: 35° C.
How it was run: as §1

[26] = test system: Morganella morganii CMC 84-38; details: 35° C.
How it was run: as §1

[27] = test system: Escherichia coli MOR 84-20; details: 35° C.
How it was run: as §1

[28] = test system: Staphylococcus aureus VGH 84-45; details: 35° C.
How it was run: as §1

[29] = test system: Klebsiella pneumoniae MOR 84-24; details: 35° C.
How it was run: as §1

[30] = test system: Morganella morganii VHG 84-12; details: Morganella morganii VHG 84-12 (VGH 84-12 for Example 131), 35° C.
How it was run: as §1

[31] = test system: Morganella morganii MOR 84-45; details: 35° C.
How it was run: as §1

[32] = test system: Escherichia coli CMC 84-50; details: 35° C.
How it was run: as §1

[33] = test system: Pseudomonas aeruginosa VGH 84-3; details: 35° C.
How it was run: as §1

[34] = test system: Pseudomonas aeruginosa LL-1244; details: 35° C.
How it was run: as §1

[35] = test system: Escherichia coli CMC 84-11; details: Escherichia coli, CMC8411, 18 h, 35° C., read-out: MIC
How it was run: as §1

[36] = test system: Enterobacter cloacae MOR 84-30; details: 35° C.
How it was run: as §1

[37] = test system: Pseudomonas aeruginosa K 84-16; details: 35° C.
How it was run: as §1

[38] = test system: Citrobacter div. K 82-24; details: 35° C.
How it was run: as §1

[39] = test system: Escherichia coli ATCC 25922; details: 18 hours, 35° C.
How it was run: as §1

MIC ([1]; Staphylococcus aureus, K8226, 18 h, read-out: MIC): 8 µg/mL (≈ 19.3 µM)
MIC ([2]; Providencia rettgeri, IO8321, 18 h, read-out: MIC): 4 µg/mL (≈ 9.65 µM)
MIC ([3]; Enterococcus faecalis, VGH8465, 18 h, read-out: MIC): 2 µg/mL (≈ 4.83 µM)
MIC ([4]; Morganella morganii, CMC8437, 18 h, read-out: MIC): 0.5 µg/mL (≈ 1.21 µM)
MIC ([5]; Enterobacter cloacae, VGH8439, 18 h, read-out: MIC): 2 µg/mL (≈ 4.83 µM)
MIC ([6]; Staphylococcus aureus, CMC83131, 18 h, read-out: MIC): 0.5 µg/mL (≈ 1.21 µM)
MIC ([7]; Staphylococcus aureus, VGH8447, 18 h, read-out: MIC): 0.25 µg/mL (≈ 0.603 µM)
MIC ([8]; Serratia marcescens, K8418, 18 h, read-out: MIC): 1 µg/mL (≈ 2.41 µM)
MIC ([9]; Pseudomonas aeruginosa, VGH844, 18 h, read-out: MIC): 16 µg/mL (≈ 38.6 µM)
MIC ([10]; Providencia, CMC833, 18 h, read-out: MIC): > 16 µg/mL
MIC [11]: 0.5 µg/mL (≈ 1.21 µM)
MIC ([12]; Serratia marcescens, MOR8441, 18 h, read-out: MIC): 4 µg/mL (≈ 9.65 µM)
MIC ([13]; Enterococcus faecalis, UCI8519, 18 h, read-out: MIC): 4 µg/mL (≈ 9.65 µM)
MIC ([14]; Escherichia coli, VGH8419, 18 h, read-out: MIC): 1 µg/mL (≈ 2.41 µM)
MIC ([15]; Enterobacter cloacae, K8410, 18 h, read-out: MIC): 2 µg/mL (≈ 4.83 µM)
MIC [16]: 32 µg/mL (≈ 77.2 µM)
MIC ([17]; Pseudomonas aeruginosa, CMC8320, 18 h, read-out: MIC): > 16 µg/mL
MIC ([18]; Staphylococcus aureus, 18 h, read-out: MIC): 0.06 µg/mL (≈ 0.145 µM)
MIC ([19]; Enterococcus faecalis, VGH8469, 18 h, read-out: MIC): 4 µg/mL (≈ 9.65 µM)
MIC [20]: 1 µg/mL (≈ 2.41 µM)
MIC ([21]; Enterococcus faecalis, CMC83120, 18 h, read-out: MIC): 4 µg/mL (≈ 9.65 µM)
MIC ([22]; Serratia marcescens, CMC8374, 18 h, read-out: MIC): > 16 µg/mL
MIC ([23]; Klebsiella pneumoniae, CMC8431, 18 h, read-out: MIC): 2 µg/mL (≈ 4.83 µM)
MIC ([24]; Enterococcus faecalis, UCI8530, 18 h, read-out: MIC): 8 µg/mL (≈ 19.3 µM)
MIC ([25]; Klebsiella pneumoniae, IO835, 18 h, read-out: MIC): 4 µg/mL (≈ 9.65 µM)
MIC ([26]; Morganella morganii, CMC8438, 18 h, read-out: MIC): 2 µg/mL (≈ 4.83 µM)
MIC ([27]; Escherichia coli, MOR8420, 18 h, read-out: MIC): 1 µg/mL (≈ 2.41 µM)
MIC ([28]; Staphylococcus aureus, VGH8445, 18 h, read-out: MIC): 0.12 µg/mL (≈ 0.29 µM)
MIC ([29]; Klebsiella pneumoniae, MOR8424, 18 h, read-out: MIC): 4 µg/mL (≈ 9.65 µM)
MIC ([30]; Morganella morganii, VHG8412, 18 h, read-out: MIC): 4 µg/mL (≈ 9.65 µM)
MIC ([31]; Morganella morganii, MOR8445, 18 h, read-out: MIC): 2 µg/mL (≈ 4.83 µM)
MIC ([32]; Escherichia coli, CMC8450, 18 h, read-out: MIC): 2 µg/mL (≈ 4.83 µM)
MIC ([33]; Pseudomonas aeruginosa, VGH843, 18 h, read-out: MIC): > 16 µg/mL
MIC ([34]; Pseudomonas aeruginosa, LL1244, 18 h, read-out: MIC): 16 µg/mL (≈ 38.6 µM)
MIC [35]: 0.5 µg/mL (≈ 1.21 µM)
MIC ([36]; Enterobacter cloacae, MOR8430, 18 h, read-out: MIC): 8 µg/mL (≈ 19.3 µM)
MIC ([37]; Pseudomonas aeruginosa, K8416, 18 h, read-out: MIC): > 16 µg/mL
MIC ([38]; Citrobacter, DIV.K8224, 18 h, read-out: MIC): 2 µg/mL (≈ 4.83 µM)
SMILES: CCn1cc(C(=O)O)c(=O)c2cc(F)c(N3CCNC(c4ccncc4)C3)c(F)c21 (centres unmarked) [Example 127]

MIC ([1]; 18 hours): 1 µg/mL (≈ 2.69 µM)
MIC ([2]; 18 hours): 0.12 µg/mL (≈ 0.323 µM)
MIC ([3]; 18 hours): 1 µg/mL (≈ 2.69 µM)
MIC ([4]; 18 hours): 0.06 µg/mL (≈ 0.162 µM)
MIC ([5]; 18 hours): 0.03 µg/mL (≈ 0.0808 µM)
MIC ([6]; 18 hours): 0.5 µg/mL (≈ 1.35 µM)
MIC ([7]; 18 hours): 0.25 µg/mL (≈ 0.673 µM)
MIC ([8]; 18 hours): 0.12 µg/mL (≈ 0.323 µM)
MIC ([9]; 18 hours): 2 µg/mL (≈ 5.38 µM)
MIC ([10]; 18 hours): 4 µg/mL (≈ 10.8 µM)
MIC [11]: 0.03 µg/mL (≈ 0.0808 µM)
MIC ([12]; 18 hours): 0.12 µg/mL (≈ 0.323 µM)
MIC ([13]; 18 hours): 2 µg/mL (≈ 5.38 µM)
MIC ([14]; 18 hours): 0.015 µg/mL (≈ 0.0404 µM)
MIC ([15]; 18 hours): 0.015 µg/mL (≈ 0.0404 µM)
MIC [16]: 2 µg/mL (≈ 5.38 µM)
MIC ([17]; 18 hours): 4 µg/mL (≈ 10.8 µM)
MIC [39]: < 0.015 µg/mL and 0.008 µg/mL
MIC ([18]; 18 hours): 0.06 µg/mL (≈ 0.162 µM)
MIC ([19]; 18 hours): 1 µg/mL (≈ 2.69 µM)
MIC [20]: 0.06 µg/mL (≈ 0.162 µM)
MIC ([21]; 18 hours): 1 µg/mL (≈ 2.69 µM)
MIC ([22]; 18 hours): 8 µg/mL (≈ 21.5 µM)
MIC ([23]; 18 hours): 0.03 µg/mL (≈ 0.0808 µM)
MIC ([24]; 18 hours): 2 µg/mL (≈ 5.38 µM)
MIC ([25]; 18 hours): 0.06 µg/mL (≈ 0.162 µM)
MIC ([26]; 18 hours): 0.03 µg/mL (≈ 0.0808 µM)
MIC ([27]; 18 hours): 0.015 µg/mL (≈ 0.0404 µM)
MIC ([28]; 18 hours): 0.06 µg/mL (≈ 0.162 µM)
MIC ([29]; 18 hours): 0.06 µg/mL (≈ 0.162 µM)
MIC ([30]; 18 hours): 0.12 µg/mL (≈ 0.323 µM)
MIC ([31]; 18 hours): 0.015 µg/mL (≈ 0.0404 µM)
MIC ([32]; 18 hours): 0.03 µg/mL (≈ 0.0808 µM)
MIC ([33]; 18 hours): 8 µg/mL (≈ 21.5 µM)
MIC ([34]; 18 hours): 4 µg/mL (≈ 10.8 µM)
MIC [35]: 0.03 µg/mL (≈ 0.0808 µM)
MIC ([36]; 18 hours): 0.5 µg/mL (≈ 1.35 µM)
MIC ([37]; 18 hours): 4 µg/mL (≈ 10.8 µM)
MIC ([38]; 18 hours): 0.03 µg/mL (≈ 0.0808 µM)
SMILES: O=C(O)c1cn(C2CC2)c2cc(N3CCNC(C4CC4)C3)c(F)cc2c1=O (centres unmarked) [Example 124, 1-Cyclopropyl-7-(3-cvclopropyl-1-piperazinyl)-6-fluoro-1,4-dihydro-4-oxo-3-quinolinecarboxvlic acid,]
